Tests used:
[1] = tested on: MIA-PaCa-2-RFP pancreatic cancer; assay: Efficacy of oral CS-682 in surgical orthotopic implantation (SOI) mouse model of MIA-PaCa-2-RFP pancreatic cancer (Example 1); format: in vivo, nude mice (NCr-nu); conditions: for median survival: control 17 days; for mice with evident intra-abdominal fluid (ascites) on examination: 100% of controls within 16 days
Experimental: The model employed pancreatic tumors derived from the MIA-PaCa-2 pancreatic cancer cell line.
The MIA-PaCa-2 pancreatic cancer cell line was obtained from the American Type Culture Collection (Rockville, Md.), maintained in DMEM media supplemented with 10% heat-inactivated fetal bovine serum and 1% penicillin and streptomycin (Gibco-BRL, Life Technologies, Inc., Grand Island, N.Y.) and cultured at 37° C. in a 5% CO2 incubator.
The pDsRed-2 vector (Clontech Laboratories Inc., Palo Alto, Calif.) was used to engineer MIA-PaCa-2 clones stably expressing RFP. This vector expresses RFP and the neomycin resistance gene on the same bicistronic message. pDsRed-2 was produced in PT67 packaging cells. RFP transduction was initiated by incubating 20% confluent MIA-PaCa-2 cells with retroviral supernatants of the packaging cells and DMEM for 24 hours. Fresh medium was replenished at this time and cells were allowed to grow in the absence of retrovirus for 12 hours. This procedure was repeated until high levels of RFP expression, as determined using fluorescence microscopy, were achieved. Cells were then harvested by trypsin/EDTA and subcultured into selective medium that contained 200 μg/ml G418. The level of G418 was increased to 2000 μg/ml stepwise. Clones expressing high levels of RFP were isolated with cloning cylinders as needed, and were amplified and transferred using conventional culture methods. High RFP-expression clones were isolated in the absence of G418 for 10 passages to select for stable expression of RFP in vivo.
Male nude mice (NCr-nu) between 4-6 weeks of age were maintained in a barrier facility on HEPA-filtered racks. The animals were fed with autoclaved laboratory rodent diet (Teckland LM-485; Western Research Products, Orange, Calif.). Animal experiments were performed in accordance with the Guidelines for the Care and Use of Laboratory Animals (NIH Publication Number 85-23) under assurance number A3873-01.
Red-fluorescent human pancreatic cancer xenografts were established in nude mice by surgical orthotopic implantation (SOI). Briefly, MIA-PaCa-2-RFP tumors in the exponential growth phase, grown subcutaneously in nude mice, were resected aseptically. Necrotic tissues were cut away, and the remaining healthy tumor tissues were cut with scissors and minced into 1 mm^3 pieces in RPMI 1640 medium. Mice were then anesthetized and their abdomens were sterilized with alcohol. An incision was then created through the left upper abdominal pararectal line and peritoneum. The pancreas was carefully exposed and two tumor pieces were transplanted onto the middle of the gland using a single 8-0 surgical suture (Davis-Geck, Inc., Manati, Puerto-Rico). The pancreas was then returned into the peritoneal cavity, and the abdominal wall and the skin were closed in two layers using 6-0 surgical sutures. All procedures were performed with a 7× microscope (Olympus) or standard surgical loupes.
(§1) CS-682 (1-(2-C-cyano-2-deoxy-β-D-arabino-pentofuranosyl)-N^4-palmitoylcytosine, Sankyo Pharmaceuticals, Tokyo) was administered by oral gavage. Prior to the first treatment, mice were randomized into eight groups of 10 mice each for treatment purposes.
(§2) Groups 2, 3 and 4 received 40, 60 and 80 mg/kg/dose CS-682, respectively, each scheduled treatment day.
(§3) […] received 20, 30, 40 and 50 mg/kg/dose CS-682 twice each treatment day, respectively.
(§4) Dosing was initiated five days after surgical orthotopic implantation, and was performed five days each week until death.
External, in vivo whole body imaging, for at least once a week, mice were weighed and underwent external, in vivo imaging. This was performed in a fluorescent light box illuminated by fiberoptic lighting at 470 nm (Lightools Research, Encinitas, Calif.). Emitted fluorescence was collected through a long-pass filter GG475 (Chroma Technology, Battleboro, Vt.) on a Hamamatsu C5810 3-chip cooled color CCD camera (Hamamatsu Photonics Systems, Bridgewater, N.J.). […]

[2] = Body weight loss and toxicity of oral CS-682 in tumor-bearing nude mice (Example 1); format: in vivo; conditions: doses higher than 60 mg/kg per day, oral gavage
Experimental: as §1, §2, §3, §4
External, in vivo whole body imaging, for at least once a week, mice were weighed and underwent external, in vivo imaging. This was performed in a fluorescent light box illuminated by fiberoptic lighting at 470 nm (Lightools Research, Encinitas, Calif.). Emitted fluorescence was collected through a long-pass filter GG475 (Chroma Technology, Battleboro, Vt.) on a Hamamatsu C5810 3-chip cooled color CCD camera (Hamamatsu Photonics Systems, Bridgewater, N.J.). […] Images were processed for contrast and brightness and analyzed with the use of Image Pro Plus 3.1 software (Media Cybernetics, Silver Spring, Md.). Real-time determination of tumor burden was performed by quantifying fluorescent surface area, as described previously (Bouvet, M., et al., Cancer Res. (2002) 62:1534-1540).

[3] = tested on: MIA-PaCa-2-RFP pancreatic cancer; assay: Primary and adjuvant (after surgical resection) CS-682 in orthotopic MIA-PaCa-2-RFP metastatic pancreatic cancer mouse model (Example 2); format: in vivo, nude mice
Excerpt: The efficacy of oral CS-682 in the adjuvant treatment of metastatic pancreatic cancer was studied. […] The study discussed below used a highly aggressive clone of the human pancreatic cancer cell line MIA-PaCa-2 pancreatic cancer cell line that was engineered, as discussed above, to selectively express high levels of the Discosoma red fluorescent protein. This brightly fluorescent model facilitated the noninvasive quantification of tumor burden throughout the course of treatment.
The MIA-PaCa-2 pancreatic cancer cell line and the animals used in the study were prepared as discussed in Example 1, with the following exceptions. Following orthotopic implantation of MIA-PaCa-2-RFP tumors, each mouse in a treatment group requiring surgical resection of the primary pancreatic tumor was anesthetized and prepared for surgery. The peritoneum was subsequently reopened through the original incision and an examination of adjacent structures was performed to ensure that macroscopic disease was localized to the pancreas. All grossly visible tumor was removed using sharp dissection. Hemostasis was achieved using 6-0 sutures. The abdomen was then closed in two layers.
(§5) Seven days after SOI, mice were randomized into eight groups of 10 mice each, depending upon whether they were to be treated by surgical resection, chemotherapy or both. Mice in groups 1-4 were not treated surgically. […] Mice in groups 2-4 were treated with primary CS-682 at doses of 40, 50 Or 60 mg/kg each treatment day, respectively, according to the treatment schedules outlined below.
(§6) Mice in groups 5-8 underwent surgical resection of their primary tumors 7 days after orthotopic implantation by a single blinded surgeon. Mice in group 5 received no additional chemotherapy; mice in groups 6-8 received adjuvant CS-682 at doses of 40, 50 or 60 mg/kg each treatment day, respectively.
(§7) CS-682 was administered by oral gavage. Treatment with primary or adjuvant CS-682 was initiated 9 days after orthotopic tumor implantation (2 days after surgical resection when applicable) and was to be administered five times each treatment week for a total of 5 weeks or until death. […] In these groups, CS-682 was administered 9 times in weeks 1 and 2 after SOI and then 10 times in weeks 4 and 5, with a treatment hiatus during week 3.
(§8) Twice/week, mice were weighed and underwent external in vivo imaging. This was performed in a fluorescent light box illuminated by fiberoptic lighting at 470 nm (Lightools Research, Encinitas Calif.). […] Emitted fluorescence was collected through a long-pass filter GG475 (Chroma Technology, Battleboro, Vt.) on a Hamamatsu C5810 3-chip cooled color charge-coupled device camera (Hamamatsu Photonics Systems, Bridgewater, N.J.). High-resolution images of 1024×724 pixels were captured directly on an IBM PC or continuously through video output on a high-resolution Sony VCR model SLV-R1000 (Sony Corp., Tokyo, Japan). Images were processed for contrast and brightness and analyzed with the use of Image Pro Plus 3.1 software (Media Cybernetics, Silver Spring, Md.). Real-time determination of tumor burden was performed by quantifying fluorescent surface area.
Mice were sacrificed and explored when they appeared premorbid. After euthanasia, each mouse underwent laparotomy and sternotomy. Excitation of RFP in the light box, described above, facilitated identification of primary and metastatic disease by fluorescence visualization. After performing full-body open images, the solid organs were removed, and their surfaces were thoroughly examined for any evidence of metastases. Fluorescence microscopy was accomplished using a Leica fluorescence stereo microscope model LZ12 (Leica Microsystems, Inc., Bannockburn, Ill.) equipped with a mercury 50-W lamp power supply. Selective excitation of RFP was produced through a […]. Emitted fluorescence was collected by the Hamamatsu camera system described above. […]

[4] = Analysis of toxicity (body weight, general appearance) of CS-682 in Example 2 mice; format: in vivo; conditions: for body weight: oral gavage
Experimental: as §5, §6, §7, §8
The body weight and general appearance of each mouse were monitored and recorded twice weekly as evidence of systemic toxicity. […] Wasting of body fat, most pronounced in the interscapular area of the back, was a common late finding that occurred in conjunction with disseminated disease.

[5] = tested on: subcutaneously-implanted solid tumor xenografts; conditions: several subcutaneously-implanted solid tumor xenografts; cited from earlier work
[6] = tested on: tumor cell lines of the stomach, lung, colon and breast; conditions: oral CS-682; cited from earlier work

CCCCCCCCCCCCCCCC(=O)Nc1ccn([C@@H]2O[C@H](CO)[C@@H](O)[C@@H]2C#N)c(=O)n1 [CS-682, 1-(2-C-cyano-2-deoxy-β-D-arabino-pentofuranosyl)-N^4-palmitoylcytosine]
median survival ([1]; 20 mg/kg twice daily oral, p=0.003): 27 days | tumor growth (mean area of external RFP autofluorescence) ([1]; 20 mg/kg twice daily, 40 mg/kg daily and 60 mg/kg daily, p<0.05 at each time point): inhibit pancreatic cancer growth | median survival ([1]; 30 mg/kg twice daily oral): 19 days | time until widespread tumor metastasis visible by whole-body RFP imaging ([1]; 40 mg/kg and 60 mg/kg daily, control within first two weeks): not visible until the third and fourth week post-implantation | development of metastases at autopsy (diaphragm, portal nodes, liver, intestinal nodes, kidney) ([1]; 40 mg/kg daily): significantly inhibited the development of metastases | median survival ([1]; 40 mg/kg daily oral, p=0.0008): 35 days | mice with locally confined disease ([1]; 40 mg/kg daily, day 16 after implantation): 90% | mice with evident intra-abdominal fluid (ascites) on examination ([1]; 40 mg/kg daily): 50% | primary tumor average weight at autopsy ([1]; 40 mg/kg daily, control 5.163 g, p=0.16): 3.935 g | median survival ([1]; 40 mg/kg twice daily oral): 19 days | median survival ([1]; 50 mg/kg twice daily oral): 18 days | effect on primary tumor growth (weight at autopsy) ([1]; 60 mg/kg daily (p=0.0004), 20 mg/kg twice daily (p=0.003)): significant effect on primary tumor growth | median survival ([1]; 60 mg/kg daily oral, p=0.002): 36 days | mice with evident intra-abdominal fluid (ascites) on examination ([1]; 60 mg/kg daily): 10% | median survival ([1]; 80 mg/kg daily oral): 19 days | toxicity-related death [2]: toxicity-related death was observed in a significant number of mice | mice that lived at least 60 days ([3]; adjuvant 50 mg/kg after surgical resection): 30% | animals with at most local disease confined to one abdominal quadrant ([3]; adjuvant 50 mg/kg after surgical resection, day 23): 70% | median survival ([3]; adjuvant 50 mg/kg after surgical resection, untreated 26 days, resection alone 28 days): 48 days | time after completion of chemotherapy until distant metastasis seen ([3]; adjuvant 50 mg/kg, the 30% of mice with long-term survival): 10 days | animals showing signs of fluid retention (ascites) at the time of their death ([3]; adjuvant CS-682 after surgical resection): 20% | survival versus treatment controls ([3]; adjuvant CS-682 after surgical resection, all doses tested (40, 50, 60 mg/kg)): significant increase in survival over treatment controls | survival versus untreated ([3]; primary CS-682 without resection, 40, 50 and 60 mg/kg): significantly enhanced the survival | body weight ([4]; 40 mg/kg each treatment day): not associated with a significant loss in body weight | body weight ([4]; 50 mg/kg each treatment day, chronic): did not lead to a significant loss of body weight | loss in body weight ([4]; 60 mg/kg, by day 20, after first nine doses): 15% | animals lost to toxicity ([4]; 60 mg/kg, modified schedule with hiatus in week 3, day 41): 1 animal | antitumor activity [5]: potent antitumor activity | cytotoxic activity compared with parent compound CNDAC [6]: more potent cytotoxic activity than its parent compound

Source: US20100197627A1, “PANCREATIC CANCER TREATMENT” (priority 2003, published 2010)
